Values of other authors, collected in US20190008784A1, “NOVEL SECNIDAZOLE SOFT GELATIN CAPSULE FORMULATIONS AND USES THEREOF” (SYMBIOMIX THERAPEUTICS, LLC, priority 2017, published 2019).

How the values were obtained:
[1] = system: bacterial vaginosis; settings: 500 mg ovule formulation compared with 37.5 mg gel
[2] = system: bacterial vaginosis; settings: intravaginal 750 mg ovule compared with 500 mg ovule

Structure (SMILES): Cc1ncc([N+](=O)[O-])n1CCO [metronidazole]
- Effectiveness in the treatment of bacterial vaginosis [1]: significantly more effective
- Cure rates [2]: higher cure rates
